# Data reported in publication PMC9995496, “A screen for MeCP2-TBL1 interaction inhibitors using a luminescence-based assay” (Scientific Reports, 2023).
# Counter-ions that a name gives are not always drawn. Like-named read-outs stand apart in the source and are kept apart here.
# System: PRKACA-PRKAR2A interaction (SmBiT-PRKACA / LgBiT-PRKAR2A), protein kinase A
# Set-up: NanoLuc complementation counter-screen in cell extract, PRKACA with PRKAR2A, loss of luminescence, detects NanoLuc interference
# Conditions: 0.5 h, 20 µM, inhibitor
# [1] = counter-screen for NanoLuc interference
# [2] = counter-screen for NanoLuc interference, Inh (PKA)
Compound,Inh (PKA) [1],also measured
"COc1ccc(-c2oc3c(CC=C(C)C)c(O[C@@H]4O[C@H](CO)[C@@H](O)[C@H](O)[C@H]4O)cc(O)c3c(=O)c2O[C@@H]2O[C@@H](C)[C@H](O)[C@@H](O)[C@H]2O)cc1 [UM0133190:02, Icariin]",17.39%,
"CNCC[C@H](Oc1cccc2ccccc12)c1cccs1 [UM0133232:02, Duloxetine HCl]",23.56%,
"CN(C/C=C/C#CC(C)(C)C)Cc1cccc2ccccc12 [UM0133235:02, Terbinafine HCl]",7.743%,
"Oc1cc(Cl)ccc1Oc1ccc(Cl)cc1Cl [UM0133255:02, Triclosan]",50.68%,
"CCOC(=O)c1cncn1[C@H](C)c1ccccc1 [UM0133274:02, Etomidate]",,Inh (PKA): 13.38%
"CN1CC(=O)N2[C@H](c3ccc4c(c3)OCO4)c3[nH]c4ccccc4c3C[C@@H]2C1=O [UM0133276:02, Tadalafil]",5.88%,
"CN(C)CCOc1ccc(/C(=C(/CCCl)c2ccccc2)c2ccccc2)cc1 [UM0133287:02, Toremifene Citrate]",53.21%,
"CC(=O)NCCCS(=O)(=O)O [UM0133300:02, Acamprosate calcium]",0.9397%,
"CSc1nc2cc(Cl)c(Oc3cccc(Cl)c3Cl)cc2[nH]1 [UM0133345:02, Triclabendazole]",37.19%,
"O=C(N/N=C/c1ccc([N+](=O)[O-])o1)c1ccc(O)cc1 [UM0133346:02, Nifuroxazide]",17.08%,
"CCOC(=O)C1=C[C@@H](OC(CC)CC)[C@H](NC(C)=O)[C@@H](N)C1 [UM0133352:02, Oseltamivir phosphate]",,Inh (PKA) [2]: -0.5287%
"O=C1CCc2ccc(OCCCCN3CCN(c4cccc(Cl)c4Cl)CC3)cc2N1 [UM0133361:02, Aripiprazole]",19.63%,
"CC1=C(O)C(=O)C=C2C1=CC=C1[C@@]2(C)CC[C@@]2(C)[C@@H]3C[C@](C)(C(=O)O)CC[C@]3(C)CC[C@]12C [UM0133421:02, Celastrol]",15.02%,
"C/C=C/c1ccc2c(c1)OCO2 [UM0133473:02, Isosafrole]",,Inh (PKA): 2.424%
"Clc1ccc2c(c1)C(N1CCNCC1)=Nc1ccccc1O2 [UM0133517:02, Amoxapine]",7.389%,
"Nc1ncn([C@@H]2O[C@H](CO)[C@@H](O)[C@H]2O)c(=O)n1 [UM0133525:02, 5-Azacytidine]",1.069%,
"CN(Cc1cnc2nc(N)nc(N)c2n1)c1ccc(C(=O)N[C@@H](CCC(=O)O)C(=O)O)cc1 [UM0133539:02, Methotrexate]",2.622%,
"O=c1c(O)c(-c2ccc(O)c(O)c2)oc2cc(O)cc(O)c12 [UM0133552:02, Quercetin dihydrate]",,Inh (PKA) [2]: 33.9%
"O=c1c(O)c(-c2ccc(O)c(O)c2)oc2cc(O)cc(O)c12 [UM0133552:03, Quercetin]",,Inh (PKA) [2]: 26.1%
"NC(=O)N1c2ccccc2C=Cc2ccccc21 [UM0133618:02, Carbamazepine]",3.187%,
"NS(=O)(=O)c1cc2c(cc1Cl)N=CNS2(=O)=O [UM0133622:02, Chlorothiazide]",0.9686%,

Compound,Inh (PKA) [1],also measured
"Cc1nnc(SCC2=C(C(=O)O)N3C(=O)[C@@H](NC(=O)Cn4cnnn4)[C@H]3SC2)s1 [UM0133624:02, Cefazolin (sodium salt)]",0.1508%,
"CO/N=C(\C(=O)N[C@@H]1C(=O)N2C(C(=O)O)=C(COC(C)=O)CS[C@H]12)c1csc(N)n1 [UM0133637:02, Cefotaxime (sodium salt)]",1.378%,
"CC[C@@]1(O)C(=O)OCc2c1cc1n(c2=O)Cc2cc3ccccc3nc2-1 [UM0133648:02, Camptothecin]",1.997%,
"COCCOC(=O)C1=C(C)NC(C)=C(C(=O)OC/C=C/c2ccccc2)C1c1cccc([N+](=O)[O-])c1 (stereo not shown) [UM0133650:02, Cilnidipine]",81.64%,
"CCCCCCCCCCCC1=C(O)C(=O)C=C(O)C1=O [UM0133662:02, Embelin]",15.52%,
"CC(C)=CC[C@@H](O)C1=CC(=O)c2c(O)ccc(O)c2C1=O [UM0133665:02, Shikonin]",46.09%,
"Nc1ccn([C@H]2CC[C@@H](CO)O2)c(=O)n1 [UM0133684:02, Zalcitabine]",-0.04839%,
"CC(C)(C)NC(=O)[C@H]1CC[C@H]2[C@@H]3CC[C@H]4NC(=O)C=C[C@]4(C)[C@H]3CC[C@]12C [UM0133719:02, Finasteride]",1.602%,
"COCCCC/C(=N\OCCN)c1ccc(C(F)(F)F)cc1 [UM0133722:02, Fluvoxamine maleate]",2.345%,
"O=c1[nH]cc(F)c(=O)[nH]1 [UM0133724:03, Fluorouracil (Adrucil)]",1.181%,
"O=C(/C=C/c1ccc(O)c(O)c1)OCCc1ccccc1 [UM0133732:02, Caffeic Acid Phenethyl Ester]",43.72%,
"C[C@H]1CCC/C=C/[C@@H]2C[C@H](O)C[C@H]2[C@H](O)/C=C/C(=O)O1 [UM0133745:02, Brefeldin A]",1.414%,
"O=c1c(-c2ccc(O)cc2)coc2cc(O)cc(O)c12 [UM0133748:02, Genistein]",59.26%,
"CC1=C(/C=C/C(C)=C/C=C/C(C)=C\C(=O)O)C(C)(C)CCC1 [UM0133752:04, Isotretinoin]",16.35%,
"CC1(C)CCC2=C(O1)c1ccccc1C(=O)C2=O [UM0133760:02, Beta-Lapachone]",9.4%,
"CO[C@@]12[C@H](COC(N)=O)C3=C(C(=O)C(C)=C(N)C3=O)N1C[C@@H]1N[C@@H]12 [UM0133761:02, Mitomycin C]",0.5965%,
"COc1cccc2c1C(=O)c1c(O)c3c(c(O)c1C2=O)C[C@@](O)(C(=O)CO)C[C@@H]3O[C@H]1C[C@H](N)[C@H](O)[C@H](C)O1 [UM0133765:03, Doxorubicin]",45.98%,
"CC1=C2C[C@H]3[C@@H](CC=C4C[C@@H](O)CC[C@@]43C)[C@@H]2CC[C@]12O[C@@H]1C[C@H](C)CN[C@H]1[C@H]2C [UM0133766:02, Cyclopamine]",2.445%,
"CN1CCC(=C2c3ccccc3CC(=O)c3sccc32)CC1 [UM0133795:02, Ketotifen Fumarate]",5.692%,
"C/C(O)=C(\C#N)C(=O)Nc1cc(Br)ccc1Br [UM0133802:02, LFM-A13]",54.46%,
"Cc1ccc(Cl)c(Nc2ccccc2C(=O)O)c1Cl [UM0133818:02, Meclofenamate Sodium]",21.07%,

Compound,Inh (PKA) [1],also measured
"Cc1[nH]c(=O)c(C#N)cc1-c1ccncc1 [UM0133819:02, Milrinone]",-0.01503%,
"O=c1cc(-c2ccc(O)cc2)oc2cc(O)cc(O)c12 [UM0133861:02, Apigenin]",24.67%,
"COc1ccc(-c2coc3cc(O)cc(O)c3c2=O)cc1 [UM0133867:02, Biochanin A]",69.13%,
"O=C(/C=C/c1ccc(O)c(O)c1)c1ccc(O)cc1O [UM0133869:02, Butein]",52.51%,
"O=c1cc(-c2ccc(O)c(O)c2)oc2cc(O)cc(O)c12 [UM0133934:02, Luteolin]",25.55%,
"O=c1c(O)c(-c2cc(O)c(O)c(O)c2)oc2cc(O)cc(O)c12 [UM0133944:02, Myricetin]",47.98%,
"CC1=CC(=O)c2c(O)cccc2C1=O [UM0133960:02, Plumbagin]",19.95%,
"C[C@H]1COC2=C1C(=O)C(=O)c1c2ccc2c1CCCC2(C)C [UM0134017:02, Cryptotanshinone]",20.28%,
"COc1c2occc2cc2ccc(=O)oc12 [UM0134068:02, 8-Methoxypsoralen]",2.167%,
"CN1C(C(=O)Nc2ccccn2)=C(O)c2ccccc2S1(=O)=O [UM0134086:02, Piroxicam]",4.329%,
"Cc1ccc(C(=O)Cn2c3c(sc2=N)CCCC3)cc1 [UM0134099:02, Pifithrin-?]",9.08%,
"Cc1nc2n(c(=O)c1CCN1CCC(c3noc4cc(F)ccc34)CC1)CCCC2 [UM0134126:02, Risperidone]",4.965%,
"Clc1cccc(Cl)c1NC1=NCCN1 [UM0134172:02, Clonidine HCl]",1.329%,
"c1ccc(CN(CC2=NCCN2)c2ccccc2)cc1 [UM0134174:02, Antazoline HCl]",0.9494%,
"O=C1CN(/N=C/c2ccc(-c3ccc([N+](=O)[O-])cc3)o2)C(=O)N1 [UM0134180:02, Dantrolene, sodium salt]",25.72%,
"O=C(NCCN1CCOCC1)c1ccc(Cl)cc1 [UM0134186:02, Moclobemide (Ro 111163)]",0.401%,
"C[C@H]1O[C@@H](O[C@H]2[C@@H](O)C[C@H](O[C@H]3[C@@H](O)C[C@H](O[C@H]4CC[C@@]5(C)[C@H](CC[C@@H]6[C@@H]5C[C@@H](O)[C@]5(C)[C@@H](C7=CC(=O)OC7)CC[C@]65O)C4)O[C@@H]3C)O[C@@H]2C)C[C@H](O)[C@@H]1O [UM0134205:02, Digoxin]",-2.961%,
"C[C@@H]1O[C@@H](O[C@H]2C[C@@H](O)[C@]3(CO)[C@H]4[C@H](O)C[C@]5(C)[C@@H](C6=CC(=O)OC6)CC[C@]5(O)[C@@H]4CC[C@]3(O)C2)[C@H](O)[C@H](O)[C@H]1O [UM0134215:02, Ouabain]",0.8032%,
"CCC1=C(C)CN(C(=O)NCCc2ccc(S(=O)(=O)NC(=O)N[C@H]3CC[C@H](C)CC3)cc2)C1=O [UM0134252:02, Glimepiride]",4.382%,
